Laboratory results from patent US10214502B2, “Method of inhibiting apolipoprotein-E expression while increasing expression of at least one of LDL-receptor protein or AbcA1 protein comprising administering a small compound” (California State University, Fresno, priority 2016, dated 2019).

What follows are compounds tested on apoE3 (assay: ELISA of apoE3 levels in conditioned media of compound-treated mouse cortical astrocyte cells). Details: 10 μM compound, 24 hours, normalized to cell protein, relative to DMSO treated cells.
Type: cell-based
Procedure: ApoE inhibition can be readily determined by any one of several assays and techniques known to those of ordinary skill in the art, including the enzyme-linked immunosorbant assay (ELISA). In the experimental results shown in Table 2 and FIG. 5, the ELISA assay was carried out on cortical astrocyte cells from mice. Astrocyte cells produce apoE, LDLR and AbcA1 proteins.
The experiments involved treating mouse cortical astrocyte cells with the claimed compounds at 10 μM concentration for an incubation time of 24 hrs. DMSO solvent was used as a negative control, because the compounds were dissolved in DMSO when applied to the cells.
The ELISA technique involves immobilizing an apoE-specific capture antibody to a 96-well plate, addition of sample (conditioned medium from mouse cortical astrocyte cells treated with the compound for 24 hours), and detection of the bound apoE using a second apoE-specific biotinylated antibody and streptavidin-HRP.
The Mabtech ELISA kit detects the presence of the three apoE isoforms: apoE2, apoE3, and apoE4.
To obtain the data shown in Table 2 and FIG. 5, the mouse cortical astrocyte cells were maintained in DMEM medium (Invitrogen) supplemented with 10 mM HEPES, 1 mM sodium pyruvate, 4.5 g/L glucose, 1% penicillin/streptomycin, and 10% fetal bovine growth serum (Invitrogen) at 37° C., with 5% CO2.
The cells (6×10^4 cells/24-well plate) were grown for 1 day in RPMI, followed by a 24 hour equilibration in serum-free Opti-MEM (Life Technologies). Treatments were carried out in triplicate with […] of fresh Opti-MEM containing 10 μM of compound or vehicle (0.1% DMSO) for 24 hours. […] ApoE concentration in the sample was calculated based on a standard curve derived using known amounts of purified apoE (from Biodesign).
The protein levels in the cells in the 24-well plates were measured using BCA Protein Assay Kit (from Pierce) and used to normalize the data. […] Sample apoE3 concentrations were represented relative to the DMSO treated cells.
The bars in FIG. 5 reflect the respective mean level apoE3 in the media for each compound with an indication of one […].
For `O=C(c1ccc2ccccc2c1)N1CCOCC1` [Compound 90], the “ApoE3 Levels in Cell Media, Average of Three Tests” value (“ApoE3 Levels in Cell Media, Average” for short) was 98.59 % of the DMSO control, the “ApoE3 Levels in Cell Media, Test 1” value was 90.22 % of the DMSO control and the “ApoE3 Levels in Cell Media, Test 2” value was 91.69 % of the DMSO control. The “ApoE3 Levels in Cell Media, Test 3” value was 113.8441 % of the DMSO control. In the case of `O=C(c1ccc2ccccc2c1)N1CCCC1` [Compound 91], the “ApoE3 Levels in Cell Media, Average” value is reported as 104.6561 % of the DMSO control, the “ApoE3 Levels in Cell Media, Test 1” value is reported as 126.8225 % of the DMSO control and the “ApoE3 Levels in Cell Media, Test 2” value is reported as 87.2 % of the DMSO control. The “ApoE3 Levels in Cell Media, Test 3” value was 99.94 % of the DMSO control. `O=C(c1ccc2ccccc2c1)N1CCCCC1` [Compound 92] was tested, and the “ApoE3 Levels in Cell Media, Average” value was 115.1327 % of the DMSO control, the “ApoE3 Levels in Cell Media, Test 1” value was 128.0284 % of the DMSO control and the “ApoE3 Levels in Cell Media, Test 2” value was 127.4327 % of the DMSO control. For the same compound, the “ApoE3 Levels in Cell Media, Test 3” value was 89.94 % of the DMSO control. With `CCC(C)NS(=O)(=O)c1ccc2ccccc2c1` (stereo not drawn) [Compound 93] the “ApoE3 Levels in Cell Media, Average” value was 102.6197 % of the DMSO control, the “ApoE3 Levels in Cell Media, Test 1” value was 103.3801 % of the DMSO control and the “ApoE3 Levels in Cell Media, Test 2” value was 109.2249 % of the DMSO control. The “ApoE3 Levels in Cell Media, Test 3” value was 95.25 % of the DMSO control. In the case of `CC(C)CNS(=O)(=O)c1ccc2ccccc2c1` [Compound 94], the “ApoE3 Levels in Cell Media, Average” value is reported as 106.8342 % of the DMSO control, the “ApoE3 Levels in Cell Media, Test 1” value is reported as 99.12 % of the DMSO control and the “ApoE3 Levels in Cell Media, Test 2” value is reported as 91.64 % of the DMSO control. The “ApoE3 Levels in Cell Media, Test 3” value was 129.7451 % of the DMSO control. For `COc1ccc(NC(=O)c2ccc3ccccc3c2)cc1` [Compound 99], the “ApoE3 Levels in Cell Media, Average” value was 104.5892 % of the DMSO control, the “ApoE3 Levels in Cell Media, Test 1” value was 106.2723 % of the DMSO control and the “ApoE3 Levels in Cell Media, Test 2” value was 116.3467 % of the DMSO control. The “ApoE3 Levels in Cell Media, Test 3” value was 91.15 % of the DMSO control. For `COc1cccc(NC(=O)c2ccc3ccccc3c2)c1` [Compound 100], the “ApoE3 Levels in Cell Media, Average” value was 84.98 % of the DMSO control, the “ApoE3 Levels in Cell Media, Test 1” value was 91.06 % of the DMSO control and the “ApoE3 Levels in Cell Media, Test 2” value was 75.01 % of the DMSO control. The “ApoE3 Levels in Cell Media, Test 3” value was 88.88 % of the DMSO control. For `O=C(Nc1ccc(Br)cc1)c1ccc2ccccc2c1` [Compound 101], the “ApoE3 Levels in Cell Media, Average” value was 96.05 % of the DMSO control, the “ApoE3 Levels in Cell Media, Test 1” value was 93.29 % of the DMSO control and the “ApoE3 Levels in Cell Media, Test 2” value was 88.21 % of the DMSO control. The “ApoE3 Levels in Cell Media, Test 3” value was 106.6434 % of the DMSO control. For `O=S(=O)(Nc1ccccc1)c1ccc2ccccc2c1` [Compound 102], the “ApoE3 Levels in Cell Media, Average” value was 97.14 % of the DMSO control, the “ApoE3 Levels in Cell Media, Test 1” value was 95.99 % of the DMSO control and the “ApoE3 Levels in Cell Media, Test 2” value was 98.8 % of the DMSO control. For the same compound, the “ApoE3 Levels in Cell Media, Test 3” value was 96.62 % of the DMSO control. In the case of `CCC(C)NS(=O)(=O)c1cccc2ccccc12` (stereo not drawn) [Compound 120], the “ApoE3 Levels in Cell Media, Average” value is reported as 88.28 % of the DMSO control, the “ApoE3 Levels in Cell Media, Test 1” value is reported as 100.2942 % of the DMSO control and the “ApoE3 Levels in Cell Media, Test 2” value is reported as 88.31 % of the DMSO control. The “ApoE3 Levels in Cell Media, Test 3” value was 76.25 % of the DMSO control. With `CC(C)CNS(=O)(=O)c1cccc2ccccc12` [Compound 121] the “ApoE3 Levels in Cell Media, Average” value was 113.6663 % of the DMSO control, the “ApoE3 Levels in Cell Media, Test 1” value was 113.2938 % of the DMSO control and the “ApoE3 Levels in Cell Media, Test 2” value was 128.755 % of the DMSO control. For the same compound, the “ApoE3 Levels in Cell Media, Test 3” value was 98.9502 % of the DMSO control. `O=S(=O)(c1cccc2ccccc12)N1CCCCC1` [Compound 122] was tested, and the “ApoE3 Levels in Cell Media, Average” value was 92.0952 % of the DMSO control, the “ApoE3 Levels in Cell Media, Test 1” value was 100.1387 % of the DMSO control and the “ApoE3 Levels in Cell Media, Test 2” value was 96.02 % of the DMSO control. For the same compound, the “ApoE3 Levels in Cell Media, Test 3” value was 80.1244 % of the DMSO control. With `O=S(=O)(c1cccc2ccccc12)N1CCCC1` [Compound 123] the “ApoE3 Levels in Cell Media, Average” value was 98.83 % of the DMSO control, the “ApoE3 Levels in Cell Media, Test 1” value was 85.69 % of the DMSO control and the “ApoE3 Levels in Cell Media, Test 2” value was 90.18 % of the DMSO control. For the same compound, the “ApoE3 Levels in Cell Media, Test 3” value was 120.6126 % of the DMSO control. In the case of `O=S(=O)(NC1CCCCC1)c1cccc2ccccc12` [Compound 124], the “ApoE3 Levels in Cell Media, Average” value is reported as 95.1 % of the DMSO control, the “ApoE3 Levels in Cell Media, Test 1” value is reported as 96.7646 % of the DMSO control and the “ApoE3 Levels in Cell Media, Test 2” value is reported as 90.1191 % of the DMSO control. For the same compound, the “ApoE3 Levels in Cell Media, Test 3” value was 98.42 % of the DMSO control. In the case of `CCN(CC)S(=O)(=O)c1cccc2ccccc12` [Compound 126], the “ApoE3 Levels in Cell Media, Average” value is reported as 89.15 % of the DMSO control, the “ApoE3 Levels in Cell Media, Test 1” value is reported as 93.7 % of the DMSO control and the “ApoE3 Levels in Cell Media, Test 2” value is reported as 89.1 % of the DMSO control. The “ApoE3 Levels in Cell Media, Test 3” value was 84.66 % of the DMSO control. In the case of `CCCCN(CCCC)S(=O)(=O)c1ccc2ccccc2c1` [Compound 128], the “ApoE3 Levels in Cell Media, Average” value is reported as 83.97 % of the DMSO control, the “ApoE3 Levels in Cell Media, Test 1” value is reported as 85.63 % of the DMSO control and the “ApoE3 Levels in Cell Media, Test 2” value is reported as 91.51 % of the DMSO control. For the same compound, the “ApoE3 Levels in Cell Media, Test 3” value was 74.78 % of the DMSO control. In the case of `CC(C)N(C(C)C)S(=O)(=O)c1ccc2ccccc2c1` [Compound 130], the “ApoE3 Levels in Cell Media, Average” value is reported as 89.39 % of the DMSO control, the “ApoE3 Levels in Cell Media, Test 1” value is reported as 89.06 % of the DMSO control and the “ApoE3 Levels in Cell Media, Test 2” value is reported as 79.12 % of the DMSO control. The “ApoE3 Levels in Cell Media, Test 3” value was 100.0032 % of the DMSO control. For `CC(NS(=O)(=O)c1ccc2ccccc2c1)c1ccccc1` (stereo not drawn) [Compound 131], the “ApoE3 Levels in Cell Media, Average” value was 85.9 % of the DMSO control, the “ApoE3 Levels in Cell Media, Test 1” value was 78.38 % of the DMSO control and the “ApoE3 Levels in Cell Media, Test 2” value was 91.41 % of the DMSO control. For the same compound, the “ApoE3 Levels in Cell Media, Test 3” value was 87.92 % of the DMSO control. In the case of `CCC(C)NS(=O)(=O)c1ccc(-c2ccccc2)cc1` (stereo not drawn) [Compound 132], the “ApoE3 Levels in Cell Media, Average” value is reported as 86.84 % of the DMSO control, the “ApoE3 Levels in Cell Media, Test 1” value is reported as 81.51 % of the DMSO control and the “ApoE3 Levels in Cell Media, Test 2” value is reported as 85.61 % of the DMSO control. For the same compound, the “ApoE3 Levels in Cell Media, Test 3” value was 93.42 % of the DMSO control. For `O=S(=O)(NCc1ccccc1)c1ccc(-c2ccccc2)cc1` [Compound 135], the “ApoE3 Levels in Cell Media, Average” value was 99.36 % of the DMSO control, the “ApoE3 Levels in Cell Media, Test 1” value was 93.55 % of the DMSO control and the “ApoE3 Levels in Cell Media, Test 2” value was 101.8388 % of the DMSO control. The “ApoE3 Levels in Cell Media, Test 3” value was 102.6888 % of the DMSO control. For `c1ccc2cc(CN3CCOCC3)ccc2c1` [Compound 138], the “ApoE3 Levels in Cell Media, Average” value was 104.8487 % of the DMSO control, the “ApoE3 Levels in Cell Media, Test 1” value was 103.8509 % of the DMSO control and the “ApoE3 Levels in Cell Media, Test 2” value was 97.61 % of the DMSO control. For the same compound, the “ApoE3 Levels in Cell Media, Test 3” value was 113.0808 % of the DMSO control. `c1ccc2cc(CN3CCCCC3)ccc2c1` [Compound 141] was tested, and the “ApoE3 Levels in Cell Media, Average” value was 80.31 % of the DMSO control, the “ApoE3 Levels in Cell Media, Test 1” value was 80.57 % of the DMSO control and the “ApoE3 Levels in Cell Media, Test 2” value was 95.09 % of the DMSO control. The “ApoE3 Levels in Cell Media, Test 3” value was 65.29 % of the DMSO control. `CC(C)CNC(c1ccccc1)(c1ccccc1)c1ccc2ccccc2c1` [Triarylmethyl Amine Compound No. 43, reference compound] was tested, and the “ApoE3 Levels in Cell Media, Average” value was 82.46 % of the DMSO control, the “ApoE3 Levels in Cell Media, Test 1” value was 86.35 % of the DMSO control and the “ApoE3 Levels in Cell Media, Test 2” value was 74.72 % of the DMSO control. For the same compound, the “ApoE3 Levels in Cell Media, Test 3” value was 86.32 % of the DMSO control.

Same assay, conditions: 10 μM, 24 hrs, ELISA of media
For `CC(C)CNC(c1ccccc1)(c1ccccc1)c1ccc2ccccc2c1` [Triarylmethyl Amine Compound No. 43, reference compound], the “apoE (apoE3) expression compared to the control DMSO, in words” value was “effectively decrease”.
